Laboratory results from the CheMixHub viscosity set.
± gives the uncertainty stated by the source.

Experiment: xn = mol fraction of the nth substance listed

OCCO + CN(C)C=O
Details | viscosity [mPa·s]
293.15 K, 101 kPa, x2 = 0.0864 | 16.12 ± 0.41
293.15 K, 101 kPa, x2 = 0.1758 | 11.93 ± 0.3
293.15 K, 101 kPa, x2 = 0.3623 | 6.277 ± 0.16
293.15 K, 101 kPa, x2 = 0.5609 | 3.23 ± 0.083
293.15 K, 101 kPa, x2 = 0.7734 | 1.66 ± 0.043
293.15 K, 101 kPa, x2 = 0.8848 | 1.191 ± 0.031
298.15 K, 100 kPa, x1 = 0.1049 | 1.27 ± 0.6
298.15 K, 100 kPa, x1 = 0.2019 | 1.64 ± 0.6
298.15 K, 100 kPa, x1 = 0.3063 | 2.27 ± 0.6
298.15 K, 100 kPa, x1 = 0.3993 | 2.9 ± 0.6
298.15 K, 100 kPa, x1 = 0.4986 | 3.95 ± 0.6
298.15 K, 100 kPa, x1 = 0.6048 | 5.35 ± 0.6
298.15 K, 100 kPa, x1 = 0.7069 | 7.24 ± 0.6
298.15 K, 100 kPa, x1 = 0.8032 | 9.44 ± 0.61
298.15 K, 100 kPa, x1 = 0.9054 | 12.85 ± 0.61
298.15 K, 101 kPa, x1 = 0.5408 | 3.065 ± 0.023
298.15 K, 101 kPa, x2 = 0.0864 | 13.24 ± 0.34
298.15 K, 101 kPa, x2 = 0.1758 | 9.921 ± 0.25
298.15 K, 101 kPa, x2 = 0.3623 | 5.381 ± 0.14
298.15 K, 101 kPa, x2 = 0.5609 | 2.852 ± 0.073
298.15 K, 101 kPa, x2 = 0.7734 | 1.518 ± 0.039
298.15 K, 101 kPa, x2 = 0.8848 | 1.105 ± 0.029
303.15 K, 100 kPa, x1 = 0.1049 | 1.23 ± 0.6
303.15 K, 100 kPa, x1 = 0.2019 | 1.52 ± 0.6
303.15 K, 100 kPa, x1 = 0.3063 | 2.03 ± 0.6
303.15 K, 100 kPa, x1 = 0.3993 | 2.63 ± 0.6
303.15 K, 100 kPa, x1 = 0.4986 | 3.6 ± 0.6
303.15 K, 100 kPa, x1 = 0.6048 | 4.53 ± 0.6
303.15 K, 100 kPa, x1 = 0.7069 | 6.12 ± 0.6
303.15 K, 100 kPa, x1 = 0.8032 | 7.92 ± 0.6
303.15 K, 100 kPa, x1 = 0.9054 | 10.48 ± 0.61
303.15 K, 101 kPa, x2 = 0.0864 | 10.91 ± 0.28
303.15 K, 101 kPa, x2 = 0.1758 | 8.25 ± 0.21
303.15 K, 101 kPa, x2 = 0.3623 | 4.639 ± 0.12
303.15 K, 101 kPa, x2 = 0.5609 | 2.551 ± 0.065
303.15 K, 101 kPa, x2 = 0.7734 | 1.392 ± 0.036
303.15 K, 101 kPa, x2 = 0.8848 | 1.027 ± 0.027
308.15 K, 100 kPa, x1 = 0.1049 | 1.15
308.15 K, 100 kPa, x1 = 0.2019 | 1.4 ± 0.6
308.15 K, 100 kPa, x1 = 0.3063 | 1.81 ± 0.6
308.15 K, 100 kPa, x1 = 0.3993 | 2.41 ± 0.6
308.15 K, 100 kPa, x1 = 0.4986 | 3.16 ± 0.6
308.15 K, 100 kPa, x1 = 0.6048 | 4.05 ± 0.6
308.15 K, 100 kPa, x1 = 0.7069 | 5.18 ± 0.6
308.15 K, 100 kPa, x1 = 0.8032 | 6.83 ± 0.6
308.15 K, 100 kPa, x1 = 0.9054 | 8.79 ± 0.6
308.15 K, 101 kPa, x1 = 0.0257 | 0.758 ± 0.039
308.15 K, 101 kPa, x1 = 0.0458 | 0.816 ± 0.041
308.15 K, 101 kPa, x1 = 0.0974 | 0.872 ± 0.044
308.15 K, 101 kPa, x1 = 0.1399 | 0.956 ± 0.095
308.15 K, 101 kPa, x1 = 0.1921 | 1.151 ± 0.056
308.15 K, 101 kPa, x1 = 0.2568 | 1.132 ± 0.11
308.15 K, 101 kPa, x1 = 0.2919 | 1.453 ± 0.069
308.15 K, 101 kPa, x1 = 0.3715 | 1.288 ± 0.12
308.15 K, 101 kPa, x1 = 0.3822 | 1.814 ± 0.084
308.15 K, 101 kPa, x1 = 0.4762 | 1.898 ± 0.18
308.15 K, 101 kPa, x1 = 0.4917 | 2.392 ± 0.11
308.15 K, 101 kPa, x1 = 0.5807 | 2.801 ± 0.25
308.15 K, 101 kPa, x1 = 0.5882 | 3.131 ± 0.14
308.15 K, 101 kPa, x1 = 0.6745 | 3.878 ± 0.34
308.15 K, 101 kPa, x1 = 0.6889 | 4.137 ± 0.18
308.15 K, 101 kPa, x1 = 0.7677 | 5.167 ± 0.44
308.15 K, 101 kPa, x1 = 0.783 | 5.498 ± 0.23
308.15 K, 101 kPa, x1 = 0.8456 | 6.582 ± 0.53
308.15 K, 101 kPa, x1 = 0.885 | 7.454 ± 0.3
308.15 K, 101 kPa, x1 = 0.9229 | 8.355 ± 0.64
308.15 K, 101 kPa, x1 = 0.9484 | 9.02 ± 0.35
308.15 K, 101 kPa, x1 = 0.968 | 10.48 ± 0.4
308.15 K, 101 kPa, x2 = 0.0864 | 9.133 ± 0.23
308.15 K, 101 kPa, x2 = 0.1758 | 7.023 ± 0.18
308.15 K, 101 kPa, x2 = 0.3623 | 4.044 ± 0.1
308.15 K, 101 kPa, x2 = 0.5609 | 2.289 ± 0.059
308.15 K, 101 kPa, x2 = 0.7734 | 1.285 ± 0.033
308.15 K, 101 kPa, x2 = 0.8848 | 0.957 ± 0.025
313.15 K, 100 kPa, x1 = 0.1049 | 1.08
313.15 K, 100 kPa, x1 = 0.2019 | 1.28 ± 0.6
313.15 K, 100 kPa, x1 = 0.3063 | 1.67 ± 0.6
313.15 K, 100 kPa, x1 = 0.3993 | 2.24 ± 0.6
313.15 K, 100 kPa, x1 = 0.4986 | 2.82 ± 0.6
313.15 K, 100 kPa, x1 = 0.6048 | 3.47 ± 0.6
313.15 K, 100 kPa, x1 = 0.7069 | 4.54 ± 0.6
313.15 K, 100 kPa, x1 = 0.8032 | 5.68 ± 0.6
313.15 K, 100 kPa, x1 = 0.9054 | 7.45 ± 0.6
313.15 K, 101 kPa, x2 = 0.0864 | 7.725 ± 0.2
313.15 K, 101 kPa, x2 = 0.1758 | 5.998 ± 0.15
313.15 K, 101 kPa, x2 = 0.3623 | 3.551 ± 0.091
313.15 K, 101 kPa, x2 = 0.5609 | 2.064 ± 0.053
313.15 K, 101 kPa, x2 = 0.7734 | 1.185 ± 0.031
313.15 K, 101 kPa, x2 = 0.8848 | 0.8951 ± 0.023
318.15 K, 100 kPa, x1 = 0.1049 | 0.96
318.15 K, 100 kPa, x1 = 0.2019 | 1.21 ± 0.6
318.15 K, 100 kPa, x1 = 0.3063 | 1.53 ± 0.6
318.15 K, 100 kPa, x1 = 0.3993 | 2.12 ± 0.6
318.15 K, 100 kPa, x1 = 0.4986 | 2.43 ± 0.6
318.15 K, 100 kPa, x1 = 0.6048 | 3.05 ± 0.6
318.15 K, 100 kPa, x1 = 0.7069 | 3.98 ± 0.6
318.15 K, 100 kPa, x1 = 0.8032 | 5.04 ± 0.6
318.15 K, 100 kPa, x1 = 0.9054 | 6.45 ± 0.6
318.15 K, 101 kPa, x2 = 0.0864 | 6.606 ± 0.17
318.15 K, 101 kPa, x2 = 0.1758 | 5.171 ± 0.13
318.15 K, 101 kPa, x2 = 0.3623 | 3.139 ± 0.08
318.15 K, 101 kPa, x2 = 0.5609 | 1.873 ± 0.048
318.15 K, 101 kPa, x2 = 0.7734 | 1.096 ± 0.028
318.15 K, 101 kPa, x2 = 0.8848 | 0.8415 ± 0.022
323.15 K, 100 kPa, x1 = 0.1049 | 0.87
323.15 K, 100 kPa, x1 = 0.2019 | 1.08
323.15 K, 100 kPa, x1 = 0.3063 | 1.38 ± 0.6
323.15 K, 100 kPa, x1 = 0.3993 | 1.92 ± 0.6
323.15 K, 100 kPa, x1 = 0.4986 | 2.19 ± 0.6
323.15 K, 100 kPa, x1 = 0.6048 | 2.8 ± 0.6
323.15 K, 100 kPa, x1 = 0.7069 | 3.53 ± 0.6
323.15 K, 100 kPa, x1 = 0.8032 | 4.4 ± 0.6
323.15 K, 100 kPa, x1 = 0.9054 | 5.59 ± 0.6
323.15 K, 101 kPa, x2 = 0.0864 | 5.671 ± 0.14
323.15 K, 101 kPa, x2 = 0.1758 | 4.507 ± 0.12
323.15 K, 101 kPa, x2 = 0.3623 | 2.789 ± 0.071
323.15 K, 101 kPa, x2 = 0.5609 | 1.711 ± 0.044
323.15 K, 101 kPa, x2 = 0.7734 | 1.022 ± 0.027
323.15 K, 101 kPa, x2 = 0.8848 | 0.7911 ± 0.021
